Measurements: patent US10882867B2, “Forms and compositions of a MK2 inhibitor” (Celgene CAR LLC, priority 2017, dated 2021)
Converted amounts (≈) assume the structure as drawn. Values belong to the molecule of their own block, whether it stands above or below them.

What was measured:
[1] = DSC and TGA thermal analysis; conditions: for endotherm observed (DSC): complex of Compound 1 with co-former, sample from primary salt/co-crystal screen; for % loss (TGA): screen sample
[2] = Form conversion (form transfer) experiments: slurry, compression, heating, humidity cycle; type: physicochemical
Method: Form conversion experiments were performed to determine interconversion among solid forms.
The stability of Form A was further characterized by compression test and form transfer experiments (Table 6). Upon application of 2000-psi pressure for about 1 minute, the material was still Form A, with broader diffraction peaks (FIG. 42(c)).

[3] = Dynamic vapor sorption (DVS) hygroscopicity; type: physicochemical; conditions: for Hygroscopicity: DVS, 0 to 90% RH
Method: Hygroscopicity was determined on a Surface Measurement Systems DVS. A sample size of 5-20 mg was loaded into the DVS instrument sample pan and the sample was analyzed on a DVS automated sorption analyzer at room temperature. The relative humidity was increased from 0% to 90% RH at 10% RH step, then decreased in a similar manner to accomplish a full adsorption/desorption cycle. FIGS. 29-33 depict the DVS isotherm plots of Forms A, C, D, E, and I.

[4] = Approximate solubility of Compound 1 Form A at room temperature; type: physicochemical; conditions: for solubility at 1 day: thermodynamic from solid
Excerpt: Solubility of Form A was approximated in the following solvents: acetonitrile (ACN), ACN/water (1:1), n-butanol (n-BuOH), absolute ethanol (EtOH), ethanol/water (1:1), methanol (MeOH), 2-propanol (IPA), ethyl acetate (EtOAc), methyl acetate (MeOAc), dichloromethane (DCM), methyl ethyl ketone (MEK), methyl t-butyl ether (MTBE), heptane, toluene, methyl acetate (MeOAc), isopropyl acetate (IPAc), methyl isobutyl ketone (MIBK), 2-methyltetrahydrofuran (2-MeTHF), 1,4-dioxane, tetrahydrofuran (THF), THF/water (1:1), water, dimethyl sufoxide (DMSO), dimethylacetamide (DMA, DMAc), and N-methylpyrrolidone (NMP). A weighed sample of Form A (about 50 mg) was treated with a known volume of a test solvent. The resulting mixture was agitated for 1 day at room temperature. If all of the solids appeared to be dissolved by visual inspection, the estimated solubility was calculated based on the total volume of solvent used to give a complete solution. If solids were present, a known volume of filtrate was evaporated to dryness and the weight of the residue was measured to estimate the solubility.

[5] = compression, 2000 psi, RT, 1 min
[6] = heating in KF oven, 190° C., ~10 min
[7] = between 0 and 90% RH, room temperature
[8] = 0-90-0% RH cycle in DVS, 25° C.

SMILES: O=C(O)c1cc(O)ccc1O [gentisic acid]
endotherm observed (DSC) [1]: endotherm observed at 115.17 °C
% loss (TGA) ([1]; up to 120° C.): 1.69% loss up to 120 °C

SMILES: N#CS [thiocyanic acid]
% loss (TGA) ([1]; from 100 to 200° C.): 6.54% loss from 100 to 200 °C
% loss (TGA) ([1]; up to 100° C.): 3.04% loss up to 100 °C

SMILES: O=C1O[C@H]([C@@H](O)CO)C(O)=C1O [L-ascorbic acid]
endotherm observed (DSC) [1]: endotherm observed at 88.26 °C
% loss (TGA) ([1]; up to 100° C.): 2.55% loss up to 100 °C

SMILES: CS(=O)(=O)O [methanesulfonic acid]
endotherm observed (DSC) [1]: endotherm observed at 157.01 °C
% loss (TGA) ([1]; up to 160° C.): 8.28% loss up to 160 °C

SMILES: NCCCC[C@H](N)C(=O)O [L-lysine]
% loss (TGA) ([1]; from 150 to 250° C.): 12.61% loss from 150 to 250 °C
% loss (TGA) ([1]; up to 150° C.): 7.32% loss up to 150 °C

SMILES: O=C(O)/C=C\C(=O)O [maleic acid]
endotherm observed (DSC) [1]: endotherm observed at 153.89 °C
% loss (TGA) ([1]; up to […] C.): 9.87% loss up to 155 °C

SMILES: O=C1NS(=O)(=O)c2ccccc21 [saccharin]
% loss (TGA) ([1]; up to […] C.): 3.70% loss up to 165 °C

SMILES: Cc1ccc(S(=O)(=O)O)cc1 [p-toluenesulfonic acid]
% loss (TGA) ([1]; up to 130° C.): 3.50% loss up to 130 °C

More lines, main results first:

endotherm observed (DSC) [1]: endotherm observed at 169.60 °C
% loss (TGA) ([1]; up to 150° C.): 1.86% loss up to 150 °C
SMILES: O=C(O)c1ccc2ccccc2c1O [1-hydroxy-2-naphthoic acid (Form 2)]

Resulting Form(s) ([2]; compression, 2000 psi, RT, 1 min, listed as B): B + A
Resulting Form(s) [2, 6]: confirmed to be Form A
Form change upon storage ([2]; storage in vials): convert to Form A
SMILES: CCOCc1cnc(Cl)nc1Oc1ccc2c(ccc3sc4c(c32)NC[C@@H](C)NC4=O)n1 [Form B, (R)-3-((2-chloro-5-(ethoxymethyl)pyrimidin-4-yl)oxy)-10-methyl-9,10,11,12-tetrahydro-8H-[1,4]diazepino[5′,6′:4,5]thieno[3,2-f]quinolin-8-one]
Resulting Form(s) [2, 5]: mainly Form B, with a small amount of Form A

Hygroscopicity [3]: slightly hygroscopic
DVS water uptake [3, 7]: about 2.5 wt %
DVS water uptake ([3]; between 0 and 90% RH, room temperature, listed as A): DVS: ~2.5 wt % water
Resulting Form(s) [2, 8]: No form change
Resulting Form(s) [2, 5]: still Form A
Resulting Form(s) [2, 6]: confirmed to be Form A
solubility at 1 day ([4]; 2-MeTHF (2-methyltetrahydrofuran), organic solvent or mixture, 2-MeTHF, 1 day): < 2 mg/mL
solubility at 1 day ([4]; ACN (acetonitrile), organic solvent or mixture, ACN, 1 day): < 2 mg/mL
solubility at 1 day ([4]; ACN/water (1:1), aqueous with cosolvent or surfactant or cyclodextrin, ACN/water (1:1), 1 day): < 1 mg/mL
solubility at 1 day ([4]; DCM (dichloromethane), organic solvent or mixture, DCM, 1 day): 8 to 16 mg/mL (≈ 17 to 34 mM)
Approximate Solubility ([4]; DCM, 1 day): <9 mg/mL
solubility at 1 day ([4]; DMA (dimethylacetamide), organic solvent or mixture, DMA, 1 day): > 50 mg/mL
Approximate Solubility ([4]; DMA, 1 day): >50 mg/mL
Approximate Solubility ([4]; DMSO, 1 day): >50 mg/mL
solubility at 1 day ([4]; DMSO, organic solvent or mixture, 1 day): > 50 mg/mL
solubility at 1 day ([4]; EtOAc (ethyl acetate), organic solvent or mixture, EtOAc, 1 day): < 1 mg/mL
solubility at 1 day ([4]; EtOH (absolute ethanol), organic solvent or mixture, EtOH, 1 day): < 2 mg/mL
solubility at 1 day ([4]; EtOH/water (1:1), aqueous with cosolvent or surfactant or cyclodextrin, EtOH/water (1:1), 1 day): < 1 mg/mL
solubility at 1 day ([4]; IPA (2-propanol), organic solvent or mixture, IPA, 1 day): < 1 mg/mL
solubility at 1 day ([4]; IPAc (isopropyl acetate), organic solvent or mixture, IPAc, 1 day): < 1 mg/mL
solubility at 1 day ([4]; MEK (methyl ethyl ketone), organic solvent or mixture, MEK, 1 day): > 2 mg/mL
Approximate Solubility ([4]; MEK, 1 day): <3 mg/mL
solubility at 1 day ([4]; MIBK (methyl isobutyl ketone), organic solvent or mixture, MIBK, 1 day): < 1 mg/mL
solubility at 1 day ([4]; MTBE (methyl t-butyl ether), organic solvent or mixture, MTBE, 1 day): < 1 mg/mL
solubility at 1 day ([4]; MeOAc (methyl acetate), organic solvent or mixture, MeOAc, 1 day): < 2 mg/mL
solubility at 1 day ([4]; MeOH (methanol), organic solvent or mixture, MeOH, 1 day): < 3 mg/mL
solubility at 1 day ([4]; NMP (N-methylpyrrolidone), organic solvent or mixture, NMP, 1 day): > 50 mg/mL
Approximate Solubility ([4]; NMP, 1 day): >50 mg/mL
solubility at 1 day ([4]; THF (tetrahydrofuran), organic solvent or mixture, THF, 1 day): 8 to 16 mg/mL (≈ 17 to 34 mM)
Approximate Solubility ([4]; THF, 1 day): <10 mg/mL
Approximate Solubility ([4]; THF/water (1:1), 1 day): <16 mg/mL
solubility at 1 day ([4]; THF/water (1:1), aqueous with cosolvent or surfactant or cyclodextrin, THF/water (1:1), 1 day): 8 to 16 mg/mL (≈ 17 to 34 mM)
Approximate Solubility ([4]; acetone, 1 day): <3 mg/mL
solubility at 1 day ([4]; acetone, organic solvent or mixture, 1 day): > 2 mg/mL
solubility at 1 day ([4]; heptane, organic solvent or mixture, 1 day): < 1 mg/mL
solubility at 1 day ([4]; n-BuOH (n-butanol), organic solvent or mixture, n-BuOH, 1 day): < 1 mg/mL
solubility at 1 day ([4]; organic solvent or mixture, all other solvents tested (not DMSO, DMA, NMP, THF/water, THF, DCM, acetone, 1,4-dioxane, MEK)): < 3 mg/mL
solubility at 1 day ([4]; toluene, organic solvent or mixture, 1 day): < 1 mg/mL
solubility at 1 day ([4]; water, 1 day): < 1 mg/mL
SMILES: CCOCc1cnc(Cl)nc1Oc1ccc2c(ccc3sc4c(c32)NC[C@@H](C)NC4=O)n1 [Form A, (R)-3-((2-chloro-5-(ethoxymethyl)pyrimidin-4-yl)oxy)-10-methyl-9,10,11,12-tetrahydro-8H-[1,4]diazepino[5′,6′:4,5]thieno[3,2-f]quinolin-8-one]

DVS water uptake ([3]; between 0 and 60% RH): about 2.2 wt %
DVS water uptake [3, 7]: 7.5 wt %
DVS water uptake ([3]; between 0 and 90% RH, room temperature, listed as E): DVS: ~7.5 wt % water
Resulting Form(s) [2, 8]: No form change
Resulting form ([2]; THF/water (5/95), long periods of equilibration): converted to Form A
Resulting Form(s) [2, 5]: still Form E
Resulting Form(s) [2, 6]: confirmed to be Form E
Resulting form ([2]; slurry in acetone, temperature and time not given): converts to Form A
SMILES: CCOCc1cnc(Cl)nc1Oc1ccc2c(ccc3sc4c(c32)NC[C@@H](C)NC4=O)n1 [Form E, (R)-3-((2-chloro-5-(ethoxymethyl)pyrimidin-4-yl)oxy)-10-methyl-9,10,11,12-tetrahydro-8H-[1,4]diazepino[5′,6′:4,5]thieno[3,2-f]quinolin-8-one]

Hygroscopicity [3]: slightly hygroscopic
DVS water uptake [3, 7]: about 2.6 wt %
DVS water uptake ([3]; between 0 and 90% RH, room temperature, listed as D): DVS: ~2.6 wt % water
Resulting Form(s) [2, 8]: No form change
Resulting Form(s) [2, 5]: mainly Form D
Resulting Form(s) ([2]; compression, 2000 psi, RT, 1 min, listed as D): D (+ A?)
Resulting Form(s) [2, 6]: confirmed to be Form A
SMILES: CCOCc1cnc(Cl)nc1Oc1ccc2c(ccc3sc4c(c32)NC[C@@H](C)NC4=O)n1 [Form D, (R)-3-((2-chloro-5-(ethoxymethyl)pyrimidin-4-yl)oxy)-10-methyl-9,10,11,12-tetrahydro-8H-[1,4]diazepino[5′,6′:4,5]thieno[3,2-f]quinolin-8-one]

Hygroscopicity [3]: hygroscopic
DVS water uptake [3, 7]: approximately 4.1 wt %
DVS water uptake ([3]; between 0 and 90% RH, room temperature, listed as C): DVS: ~4.1 wt % water
Resulting Form(s) [2, 8]: E + C + peaks
Resulting Form(s) [2, 5]: partially convert to Form E
Resulting Form(s) ([2]; compression, 2000 psi, RT, 1 min, listed as C): E + C + peaks
Resulting Form(s) [2, 6]: a mixture of Form A and Form C
Resulting Form(s) ([2]; heating in KF oven, 190° C., ~10 min, listed as C): A + C (shifted)
Resulting form ([2]; slurry in THF/water (5:95), time not given): convert to Form E
SMILES: CCOCc1cnc(Cl)nc1Oc1ccc2c(ccc3sc4c(c32)NC[C@@H](C)NC4=O)n1 [Form C, (R)-3-((2-chloro-5-(ethoxymethyl)pyrimidin-4-yl)oxy)-10-methyl-9,10,11,12-tetrahydro-8H-[1,4]diazepino[5′,6′:4,5]thieno[3,2-f]quinolin-8-one]

Resulting Form(s) ([2]; slurry in THF/water (5:95), RT, 8 days): A + I
Resulting Form(s) ([2]; slurry in water, RT, 4 days): generated Form I
SMILES: CCOCc1cnc(Cl)nc1Oc1ccc2c(ccc3sc4c(c32)NC[C@@H](C)NC4=O)n1 [Form H, (R)-3-((2-chloro-5-(ethoxymethyl)pyrimidin-4-yl)oxy)-10-methyl-9,10,11,12-tetrahydro-8H-[1,4]diazepino[5′,6′:4,5]thieno[3,2-f]quinolin-8-one]

% loss (TGA) ([1]; up to 150° C.): 10.82% loss up to 150 °C
SMILES: O=C(O)c1ccc2ccccc2c1O [1-hydroxy-2-naphthoic acid (Form 1)]

DVS water uptake [3, 7]: Approximately 1.5 wt %
Resulting Form(s) [2, 8]: change to Form A
SMILES: CCOCc1cnc(Cl)nc1Oc1ccc2c(ccc3sc4c(c32)NC[C@@H](C)NC4=O)n1 [Form I, (R)-3-((2-chloro-5-(ethoxymethyl)pyrimidin-4-yl)oxy)-10-methyl-9,10,11,12-tetrahydro-8H-[1,4]diazepino[5′,6′:4,5]thieno[3,2-f]quinolin-8-one]
